Results on ten molecules are retold here after patent EP4473972A1, “COMBINATIONS COMPRISING AN ATR INHIBITOR WITH SYNERGISTIC EFFECT AGAINST GLIOMAS” (Eberhard-Karls-Universität Tübingen, priority 2023, dated 2024).

Assay [1] concerns LN229 and LNZ308 cells. Put plainly: 1x1 (IC50xIC50) pre-selection screen, acute cytotoxicity assay, Bliss Independence Criterion. The settings on record: combined with AZD6738, 1x1 (IC50xIC50), 72 h, serum free medium. The class given is cell-based, human. The method, then:
(§1) The inventors seeded 5,000 or 10,000 cells, respectively, on day one, treated the next day in serum-free medium and incubated for up to 72 h. Subsequently, they measured cell viability using CellTiterBlue reagent (Promega, Madison, WI, US) according to manufacturer's instructions with a GloMax (Promega, Madison, Wl, US). The inventors normalized measurements to untreated cells.
The inventors leveraged an acute cytotoxicity assay workflow to evaluate potential interaction partners for AZD6738 which were derived from transcriptomic, proteomic and genome-wide CRISPR/Cas9 genetic dependency analyses. In a 1×1/IC50×IC50 set-up, they treated LN229 and LNZ308 cells in serum free medium for 72 h. The inventors used the original Bliss Independence Criterion to evaluate synergism potential. For this, a predicted value for additivity, derived from the product of the two monotherapy settings, was compared to the actual measurement of the combined treatment of the two drugs. […] BMC Systems Biology 4: 50. Subsequently, the inventors subjected LN229, LNZ308, GS-2 and GS-9 cells to 4x4 synergy map assays again in an acute cytotoxicity assay workflow. The inventors used the R package synergyfinder with zero interaction potential (ZIP) synergy scores calculated from 4x4 concentration matrices for each tested combination and the average across the plate; see He et al. (2018); Methods for High-throughput Drug Combination Screening and Synergy Scoring. In Cancer Systems Biology: Methods and Protocols, von Stechow (ed) pp 351-398. New York, NY: Springer New York.

Assay [2] concerns LNZ308. As to the kind of experiment: 4x4 synergy map assay (ZIP synergy score). The class given is cell-based, human. The settings on record: combined with AZD6738 (ATRi). The method, then: as §1
(§2) The inventors leveraged an acute cytotoxicity assay workflow to evaluate potential interaction partners for AZD6738 which were derived from transcriptomic, proteomic and genome-wide CRISPR/Cas9 genetic dependency analyses. […] The inventors used the original Bliss Independence Criterion to evaluate synergism potential. For this, a predicted value for additivity, derived from the product of the two monotherapy settings, was compared to the actual measurement of the combined treatment of the two drugs. […] BMC Systems Biology 4: 50. Subsequently, the inventors subjected LN229, LNZ308, GS-2 and GS-9 cells to 4x4 synergy map assays again in an acute cytotoxicity assay workflow. […] New York, NY: Springer New York.

The subject of assay [3] is LN229 cells. Put plainly: 4x4 synergy map assay (ZIP synergy score). The assay is classed as cell-based, human. The settings on record: combined with AZD6738 (ATRi). The procedure: as §1, §2
Assay [4] deals with GS-2 cells. As to the kind of experiment: 4x4 synergy map assay (ZIP synergy score). The class given is cell-based. The note with it: combined with AZD6738 (ATRi). The procedure: as §1, §2
The test system of assay [5] is GS-9. As to the kind of experiment: 4x4 synergy map assay (ZIP synergy score). The class given is cell-based. The settings on record: combined with AZD6738 (ATRi). The procedure:
as §1, §2

In assay [6] the test system is LN229, LNZ308, GS-2 and GS-9 cells. Put plainly: 4x4 synergy map assay (ZIP synergy score), all four cell lines. The class given is cell-based. The note with it: combined with AZD6738 (ATRi); across all four cell lines. The procedure: as §1
The inventors leveraged an acute cytotoxicity assay workflow to evaluate potential interaction partners for AZD6738 which were derived from transcriptomic, proteomic and genome-wide CRISPR/Cas9 genetic dependency analyses. In a 1×1/IC50×IC50 set-up, they treated LN229 and LNZ308 cells in serum free medium for 72 h. The inventors used the original Bliss Independence Criterion to evaluate synergism potential. For this, a predicted value for additivity, derived from the product of the two monotherapy settings, was compared to the actual measurement of the combined treatment of the two drugs. […] The inventors used the R package synergyfinder with zero interaction potential (ZIP) synergy scores calculated from 4x4 concentration matrices for each tested combination and the average across the plate; see He et al. (2018); Methods for High-throughput Drug Combination Screening and Synergy Scoring. […]

The test system of assay [7] is primary cultures TUE-PC1-6. As to the kind of experiment: Combination treatment in primary glioma cultures (Bliss independence Criterion). The assay is classed as cell-based. The settings on record: plus AZD6738.
Text: Primary tumor tissue was obtained from fresh residual material upon resection at the Department of Neurosurgery, University Hospital Tübingen. The inventors cut the tissue in small pieces, washed it using Hanks Balanced Salt Solution (HBSS) (Gibco, Carlsbad, CA, US) and digested it by collagenase and dispase (Roche, Basel, CH). To remove any remaining erythrocytes, they used red blood cell lysis buffer (Sigma Aldrich, St. Louis, MO, US). The inventors then cultured the cells as GS cells in Neurobasal®-A medium. They first evaluated AZD6738 sensitivity of each primary culture and selected two concentrations. […] To evaluate combination treatment analyses, the inventors leveraged the Bliss independence Criterion.
as §1

For assay [8], the system named is LN229-GFP cells. Put plainly: Zebrafish embryo xenotransplant, tumor area. The class given is in vivo, wildtype zebrafish embryos. The note with it: monotherapy, 48 h of treatment; not significant as compared to the DMSO control. The method, then: The inventors used zebrafish wildtype (wt) TE embryos younger than 5 days post-fertilization (dpf). […] Labelled cells were suspended in PBS at 2*10^5 cells/µL and approx. 1 nL cell suspension was injected into the midbrain region of 24 hpf embryos. The inventors incubated the embryos at 28°C for 1 h and afterwards divided them into treatment groups. Only successfully transplanted embryos were used for further experiments. Then, the inventors applied the treatments as indicated in the respective figures and incubated that for 48 h at 35°C. For evaluation of tumor size, they imaged embryos on a Nikon Stereomicroscope (SMZ18) with the NIS Element software. The inventors assessed the tumor surface areas using Imaris (version 9.2.0).

The subject of assay [9] is human and murine cell lines. As to the kind of experiment: Anti-glioma activity in vitro (Figure 1 b). The assay is classed as cell-based. The procedure: The inventors seeded 5,000 or 10,000 cells, respectively, on day one, treated the next day in serum-free medium and incubated for up to 72 h. Subsequently, they measured cell viability using CellTiterBlue reagent (Promega, Madison, WI, US) according to manufacturer's instructions with a GloMax (Promega, Madison, Wl, US). The inventors normalized measurements to untreated cells. Cells were seeded the day before treatment. The inventors treated the cells in the indicated concentrations in serum-free medium for 24 h after which they changed the medium back to medium containing FCS, followed by a 7 to 21 day incubation time. The inventors used crystal violet (0.5% w/v) to stain colonies and analyzed the area coverage using the ImageJ software Plugln ColonyArea. Measurements were normalized to respective vehicle control wells.

Molecules are shown by their SMILES.

Consider `CO[C@H]1C[C@@H]2CC[C@@H](C)[C@@](O)(O2)C(=O)C(=O)N2CCCC[C@H]2C(=O)O[C@H]([C@H](C)C[C@@H]2CC[C@@H](OCCO)[C@H](OC)C2)CC(=O)[C@H](C)/C=C(\C)[C@@H](O)[C@@H](OC)C(=O)[C@H](C)C[C@H](C)/C=C/C=C/C=C/1C` [everolimus], for which the Bliss synergy scores entry in [1] is “top candidates”.

As to `COc1ccc2c(c1)[nH]c1c(C)nccc12` [harmine], in assay [1], the Bliss synergy scores result is given as “top scoring hits”.

Take `O=c1sn(-c2cccc3ccccc23)c(=O)n1Cc1ccccc1` [tideglusib, Tideglusib]: the Bliss synergy scores entry in [1] was “top scoring hits”.

Take `O=C(c1cc(Cc2n[nH]c(=O)c3ccccc23)ccc1F)N1CCN(C(=O)C2CC2)CC1` [olaparib, Olaparib]: the “ZIP synergy score (interaction with ATRi)” value in assay [2] is “do not”; in [3], “synergistic interaction”; in assay [4], “synergistic interaction”; in [5] it was “do not”. For the same molecule, the Bliss synergy scores entry in assay [1] is reported as “top scoring hits”.

With `NC(=O)NO` [hydroxyurea, hydroxycarbamide], the “ZIP synergy score (synergism signature)” value in assay [6] is given as “synergism signature”. Also, the “combination efficacy (Bliss Independence Criterion)” value in assay [7] (TUE-PC1, TUE-PC4, TUE-PC5) is given as “not”; in assay [7] (TUE-PC2, TUE-PC3 and TUE-PC6), “synergistic readout”. The Bliss synergy scores result in [1] is “top scoring hits”.

For the molecule `COc1cc([C@@H]2c3cc4c(cc3[C@@H](O[C@@H]3O[C@@H]5CO[C@@H](C)O[C@H]5[C@H](O)[C@H]3O)[C@H]3COC(=O)[C@H]23)OCO4)cc(OC)c1O` [etoposide, Etoposide], the Bliss synergy scores entry in [1] is reported as “top scoring hits”.

Take `N.N.[Cl][Pt][Cl]` [cisplatin, cis-diammine dichloridoplatin]: in assay [8], the tumor area result is “modest decrease”. Moreover, in assay [6], the “ZIP synergy score (synergism signature)” value is on record as “synergism signature”. Besides, the “combination efficacy (Bliss Independence Criterion)” value in assay [7] (all six primary cultures) is reported as “synergistic read-outs”.

As to `O=C(CCCCCCC(=O)Nc1ccccc1)NO` [vorinostat, suberoylanilide hydroxamic acid], the Bliss synergy scores entry in assay [1] is “top scoring hits”.

With `COc1cccc2c1C(=O)c1c(O)c3c(c(O)c1C2=O)C[C@@](O)(C(=O)CO)C[C@@H]3O[C@H]1C[C@H](N)[C@H](O)[C@H](C)O1` [doxorubicin], the Bliss synergy scores result in [1] was “top scoring hits”.

For the molecule `CNCc1ccc(-c2cc(-c3nc(-c4ccc(S(=O)(=O)C(C)C)cc4)cnc3N)on2)cc1` [Berzosertib, berzosertib], the “anti-glioma activity in vitro” value in assay [9] is on record as “significant anti-glioma activity”.
